One data set relates to 3T3 mouse fibroblasts. In words: Cell proliferation, BrdU assay. It is filed as cell-based. Particulars: 24 h. The procedure: 3T3 fibroblasts were seeded in a 96-well flat bottom plate at a density of 1×10^4 cells/well. Cell viability was measured by an MTT (3-(4,5-Dimethylthiazol-2-yl)-2,5-diphenyltetrazolium bromide) assay in triplicate (0.3-30 μM of test substance for […]) essentially as described by Mosmann (J. Immunol. Methods 65, 55-63, 1983) and quantified spectrophotometrically at 550 nm using a microplate reader (Molecular Devices, Sunnyvale, Calif.). […] For cell proliferation studies, cells were treated in triplicate with 0.1-10 μM of test substance for 24 h and assayed using a BrdU (5-bromo-2′-deoxyuridine) kit from Amersham (Uppsala, Sweden).

The nature of data set [1]: Body composition and blood biochemistry, rats on normal diet, 24 d oral HB (Protocol 1). The format is in vivo, rat. The following applies: for Bone mineral content / Fat mass / Lean mass / change in fat mass vs control / increase in lean body mass vs control: DEXA. How it is done:
Six-week-old male Wistar rats (180-220 g, Charles River Laboratories, MA) were housed in individual chambers in a room maintained at a constant room temperature with 12 h light-dark cycle. Animals had free access to food and water. Animals were allowed to adapt to new conditions for 7 d and handling the animals was carried out daily during this time to reduce the stress of physical manipulation. Animals were randomized into groups according to bodyweight 1 d prior to dosing.
The body weight of each animal and the total amount of food consumed (accounted for spillage) were recorded every 2 d for the duration of the experiment. At the end of the experiment, blood was collected by heart puncture after CO2 inhalation and animal body composition was assessed by DEXA dual-energy X-ray absorptiometry analysis using a Lunar Prodigy Densitometer (GE Healthcare, Waukesha, Wis.). At necropsy, tissue weights were recorded. Tissue samples were collected by snap-freezing in liquid nitrogen and stored at −80° C. for further studies. Total RNA was isolated using Trizol, its quantity and purity were determined using a NanoDrop (Nanodrop Technologies, Wilmington, Del.).
Blood samples were taken from overnight-fasted animals by heart puncture, collected in EDTA-coated tubes, centrifuged 1,500 g for 20 min, and separated plasma was stored at −80° C. until analysis. Glucose was measured in blood samples using a Lifescan glucometer (Johnson and Johnson, New Brunswick, N.J.). […] Plasma triglycerides and total cholesterol were measured by enzymatic colorimetric assays (Wako Diagnostics, Richmond, Va.). Total testosterone in plasma samples was quantified by an ELISA assay (DRG Diagnostics, Marburg, Germany).

Data set [2] relates to orchiectomized (ORX) Wistar rats. It is filed as in vivo, rat. Particulars: for Glans penis weight: listed as HB. The procedure: Protocol 3: Four-week-old sham-operated (sham, n=6) or orchiectomized (ORX, n=24) Wistar rats (Charles River Laboratories, MA) were subject to a 10-d Hershberger assay (surgically castrated peri-pubertal adult model) under the following experimental conditions: sham, ORX (vehicle), ORX (20 mg/kg HB orally), ORX (60 mg/kg HB orally), and ORX (0.4 mg/kg testosterone propionate subcutaneously, serving as a positive control for the assay). All procedures and measurements followed protocol 1, except no body composition measurements were taken. Limb grip strength was measured for control animals and animals receiving 60 mg/kg HB using a digital force gauge (Wagner Instruments model FDV5) by Product Safety Laboratories (Dayton, N.J.). After the rats were allowed to grip the screen with paws, the animals were quickly pulled until the paws released from the screen, and the required release force was recorded. Three trials on each animal were performed in triplicate, and significance was determined using Student's t test (p<0.05). In addition to the gastrocnemius muscle, androgen-sensitive tissues (ventral prostate, seminal vesicles, bulbocavernosus/levator ani muscle complex, glans penis, and Cowper's gland) were dissected out and weighed.
The muscle samples for histochemical analysis were taken from the middle section of the mixed-fiber gastrocnemius muscle of the castrated animals treated according to protocol 4 (described herein above) to allow for the observation of differences in fiber type distribution and cross-section area associated with ORX and HB treatments. Serial transverse cryosections (10 μm) were prepared from each muscle and were analyzed for myofibrillar adenosine triphosphatase (mATPase) histochemistry after alkaline (pH=9.5) preincubation. Fiber cross-section area and enzyme activity levels were determined from digitized images of the muscle cross-sections that were stored as gray-level pictures using ImageJ software (National Institutes of Health, Bethesda, Md.). […]

Data set [3] can be described thus: Cytotoxicity, MTT assay in 3T3 fibroblasts. It is filed as cell-based, mouse. The following applies: mouse. In general terms: Formazan colour is commonly taken as a measure of viable cells.
Where [4] appears, read: ORX rats, 20 mg/kg oral daily 10 d.
The mark [5] stands for this setting: ORX rats, 60 mg/kg oral daily 10 d.
[6] abbreviates: ORX rats, 60 mg/kg oral per day 10 days.

SMILES strings stand for the structures. Read-outs that look alike come from different tables or passages of the source. Bounds are passed on as bounds.

As for `CC[C@@H](C(C)C)[C@H](O)[C@@H](O)[C@@H](C)[C@H]1CC[C@H]2[C@@H]3COC(=O)[C@H]4C[C@H](O)[C@H](O)C[C@]4(C)[C@H]3CC[C@]12C` [Compound 1, (22S,23S,24S)-2α,3α,22,23-tetrahydroxy-24 ethyl-β-homo-7-oxo-5α-cholestane-6-one], the “Cell proliferation at 5 μM, % of control” value with 3T3 mouse fibroblasts worked out at 37.7 ± 3.4 %. In data set [1] (20 mg/kg oral daily 24 d), the Body weight is on record as 324.3 ± 11.5 g, the Body weight gain was 126.6 ± 7.1 g, the Gastrocnemius muscle worked out at 2.07 ± 0.06 g and the “increase in gastrocnemius muscle mass” value stood at 15.6%. Moreover, in data set [1] (20 mg/kg oral daily 24 d), the “increase of total body weight gain relative to initial body weight, compared with vehicle-treated controls” value worked out at 18.3%; the Bone mineral content worked out at 7.0 ± 0.3 g; the Fat mass is on record as 49.0 ± 4.3 g; the Lean mass is 268.3 ± 9.0 g. For the same compound, in data set [1] (20 mg/kg oral daily 24 d), the “change in fat mass vs control” value is −3.9% and the “increase in lean body mass vs control” value came to 7.0%. Besides, in data set [1] (60 mg/kg oral daily 24 d), the Body weight was determined as 342.3 ± 4.9 g, the Body weight gain was found to be 135.7 ± 9.4 g, the Gastrocnemius muscle is 2.13 ± 0.12 g and the “increase in gastrocnemius muscle mass” value came out at 19.0%. In data set [1] (60 mg/kg oral daily 24 d), the “increase of total body weight gain relative to initial body weight, compared with vehicle-treated controls” value came to 26.8%; the Bone mineral content amounted to 7.4 ± 0.1 g; the Fat mass worked out at 48.5 ± 3.8 g; the Lean mass came out at 286.5 ± 4.3 g. In data set [1] (60 mg/kg oral daily 24 d), the “change in fat mass vs control” value is on record as −4.9% and the “increase in lean body mass vs control” value is on record as 14.2%. The “increase in gastrocnemius muscle mass” value in data set [2] (ORX rats, 20 mg/kg oral 10 d) was determined as 13.8%. Besides, in data set [2] (setting [4]), the Bulbocavernosus/levator ani weight was determined as 109.2 ± 8.6 mg, the “Cowper's gland weight” value is 11.2 ± 0.7 mg, the Seminal vesicles weight came to 37.3 ± 3.5 mg and the Ventral prostate weight is listed as 26.0 ± 2.5 mg. Moreover, the Glans penis weight in data set [2] (ORX rats, 20 mg/kg oral daily 10 d, 20 mg/kg) was 55.3 ± 1.7 mg. The “increase in gastrocnemius muscle mass” value in data set [2] (ORX rats, 60 mg/kg oral 10 d) is on record as 10.3%. For the same compound, in data set [2] (setting [5]), the Bulbocavernosus/levator ani weight was found to be 137.7 ± 9.9 mg, the “Cowper's gland weight” value is 12.5 ± 1.1 mg, the Seminal vesicles weight was 34.7 ± 3.3 mg and the Ventral prostate weight is reported as 23.0 ± 2.4 mg. In addition, in data set [2] (ORX rats, 60 mg/kg oral daily 10 d, 60 mg/kg), the Glans penis weight was 59.6 ± 1.6 mg. Besides, in data set [2] (setting [6]), the “Change in grip strength of lower extremities” value turned out to be 0.0851 ± 0.0197 kg and the “change in grip strength for front limbs” value amounted to 0.2711 ± 0.0660 kg. For the same compound, the “increase in total number of type IIa and type IIb fibers” value in data set [2] (gastrocnemius, 20 or 60 mg/kg per day 10 d, independent of dose) was “approximately 60%”. For the same compound, the “androgenic activity in the Hershberger assay” value in data set [2] (rat, in vivo) is “very low androgenic activity”.

On to `CC[C@@H](C(C)C)[C@H](O)[C@@H](O)[C@@H](C)[C@H]1CC[C@H]2[C@@H]3CC(=O)[C@H]4C[C@H](O)[C@H](O)C[C@]4(C)[C@H]3CC[C@]12C` [Compound 2, (22S,23S,24S)-2α,3α, 22,23-tetrahydroxy-24-ethyl-5α-cholestan-6-one], for which, in data set [3], the 50% inhibitory concentration (IC50) (as a rule, the concentration at which inhibition is half-maximal) is > 30 µM.

The record behind these values is patent publication US20140128357A1, “METHODS OF PRODUCING AND USING BRASSINOSTEROIDS TO PROMOTE GROWTH, REPAIR AND MAINTENANCE OF SKELETAL MUSCLE AND SKIN” (Rutgers University, priority 2010, published 2014).
